# Measured values from PMC7397174, “4-Arylthieno[2,3-b]pyridine-2-carboxamides Are a New Class of Antiplasmodial Agents” (Molecules, 2020).
# Read-outs that look alike come from different tables or passages of the source.
# Key:
# [1] = system: rHsGSK-3; test: KinaseGlo Plus assay for inhibition of HsGSK-3; format: biochemical, human; settings: for rHsGSK-3 Activity at 10 µM [%]: remaining activity, calculated on DMSO controls, Table 4
# Protocol: A commercial luminescence-based kinase assay was used to investigate the enzymatic activity of kinases and to test potential kinase inhibitors. The KinaseGlo Plus assay (KinaseGlo Plus, Promega, Madison, WI, USA) provides a linear luminescence signal at ATP concentrations up to 100 μM and offers high signal stability. First, the kinase to be investigated and a corresponding substrate in the presence of ATP are used to perform the kinase reaction. During the substrate phosphorylation, ATP is consumed depending on the kinase activity. Subsequently, luminescence is generated by means of luciferase which is contained in the KinaseGlo Reagent. The intensity of the luminescence signal depends on the amount of ATP remaining in the reaction mixture. The luminescence […] to the enzymatic activity of the kinase. The following approach was used for the kinase reaction: rPfGSK-3 (see 3.4) or rHsGSK-3 (Promega, Madison, WI, USA) (20 ng), GS-1 substrate (Promega, Madison, WI, USA) (12 µg) and ATP (6 µg) (Ultra Pure, Promega, Madison, WI, USA) in 1× kinase reaction buffer (40 mM Tris-HCl pH 7.5, 20 mM MgCl2, 0.1 mg/mL BSA; final reaction volume 5 µL). The kinase reaction was performed for 30 min at 30 °C. The reaction mixture was then mixed with KinaseGlo Reagent (5 µL) and incubated for 10 min at room temperature. The mixture was transferred to a white 384-well plate (NUNC, ThermoFisher, Waltham, MA, USA) and the luminescence signal was measured in an EnVision Multilable Plate Reader (PerkinElmer, Waltham, MA, USA; integration time 0.5 sec/well). For the investigation, potential kinase inhibitors could be added directly to the kinase reaction. All kinase inhibitors were dissolved in DMSO. By appropriate pre-dilution of the inhibitors in kinase reaction buffer the final DMSO concentration in the kinase reaction was at most 1%. As negative control 1% DMSO without substance was measured. Since the luminescence signal is […] proportional to the ATP concentration, a control reaction (reaction without kinase) was measured simultaneously. The difference between kinase reaction and control reaction corresponds to the kinase activity. Using GraphPad Prism (version 6) the measured values were plotted and normalized to the DMSO control.
# [2] = system: erythrocytic forms of P. falciparum (strain 3D7); test: Viability screening of antiplasmodial activity (SYBR-gold DNA quantification, 96 h); format: cell-based, Plasmodium falciparum; settings: for activity at 0.3 µM / activity at 3 µM: 96 h; for activity at 0.3 µM: read-out: Parasitemia (3D7) at 0.3 µM [%]; for activity at 3 µM: read-out: Parasitemia (3D7) at 3 µM [%]; for SI (Selectivity index for 3D7 erythrocytic forms versus HEK293 cells): 3D7 versus HEK293 cells
# [3] = in vitro; format: cell-based, human; settings: human, HEK293T Viability at 30 µM [%]
# Protocol: (§1) Cytotoxic effects of test compounds on eukaryotic cells were investigated using a HEK293T cell viability assay. First, the cell density of a HEK293T culture was determined. […] The supernatant was then aspirated and fresh culture medium was added to 200 μL into which the test compounds were previously added. All substances were previously dissolved in DMSO. […] The viability of the cells was then examined by adding PrestoBlue® Cell Viability Agent (Invitrogen, Carlsbad, CA, USA). The supernatant was removed, 10% PrestoBlue® was added in preheated PBS and the culture was incubated for 30 min at 37 °C. In cells with an active metabolism, the PrestoBlue dye is reduced, causing it to fluorescence. The fluorescence (λex = 560 nm, λem = 590 nm) was measured in an EnVision Multilable Plate Reader (Perkin Elmer, Waltham, MA, USA; integration time 0.1 sec/well).
# [4] = molecular target: rPfGSK-3 (Plasmodium falciparum, UniProt O77344); test: KinaseGlo Plus assay for inhibition of PfGSK-3; format: biochemical
# [5] = system: HEK293T cells; test: in vitro; format: cell-based, human; settings: 30 µM
# Protocol: as §1
# [6] = Plasmodium falciparum, 0.3 µM, strain 3D7, calculated on DMSO controls
# [7] = Plasmodium falciparum, 3 µM, strain 3D7, calculated on DMSO controls
# [8] = 10 µM, remaining activity, calculated on DMSO controls, Table 3, read-out: rPfGSK-3 Activity at 10 µM [%]
# [9] = Plasmodium falciparum, 3D7, strain 3D7, erythrocytic forms
# [10] = read-out: rPfGSK-3 Activity at 10 µM [%], 10 µM, remaining activity, calculated on DMSO controls, Table 3
# Sequence of rPfGSK-3 (O77344 entry or part of it): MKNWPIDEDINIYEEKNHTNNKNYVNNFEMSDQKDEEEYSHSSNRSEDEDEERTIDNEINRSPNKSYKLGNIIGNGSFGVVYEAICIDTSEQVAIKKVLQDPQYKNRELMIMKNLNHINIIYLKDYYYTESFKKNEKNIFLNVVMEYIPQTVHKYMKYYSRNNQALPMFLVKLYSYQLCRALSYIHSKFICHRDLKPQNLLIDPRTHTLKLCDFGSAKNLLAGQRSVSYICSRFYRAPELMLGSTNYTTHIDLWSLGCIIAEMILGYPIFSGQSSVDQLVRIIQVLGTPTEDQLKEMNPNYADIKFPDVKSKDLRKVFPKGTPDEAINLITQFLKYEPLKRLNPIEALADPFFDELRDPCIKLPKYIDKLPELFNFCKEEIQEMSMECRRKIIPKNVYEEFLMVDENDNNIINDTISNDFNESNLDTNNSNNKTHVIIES
Compound,rHsGSK-3 Activity at 10 µM [%] [1] [%],"activity at 0.3 µM [2, 6] [%]","activity at 3 µM [2, 7] [%]","viability at 48 h, 30 µM [3] [%]","IC50 [2, 9] [nM]",other results
"Cc1cccc(-c2c(C#N)c(N)nc3sc(C(=O)NCCN4CCOCC4)c(N)c23)c1 [Compound 9n, 3,6-Diamino-5-cyano-N-(2-morpholinoethyl)-4-(3-methylphenyl)thieno[2,3-b]pyridine-2-carboxamide]",93.9 ± 3.2,58.7 ± 25.9,91.6 ± 19.2,70.9 ± 23.6,–,"remaining activity at 10 µM [4, 8]: < 40%"
"Cc1cccc(-c2c(C#N)c(N)nc3sc(C(=O)NC4CC4)c(N)c23)c1 [Compound 9m, 3,6-Diamino-5-cyano-N-cyclopropyl-4-(3-methylphenyl)thieno[2,3-b]pyridine-2-carboxamide]",93.8 ± 2.1,74.9 ± 15.7,88 ± 18.2,74.3 ± 31.1,–,"remaining activity at 10 µM [4, 8]: < 40%"
"Nc1c(C(=O)Nc2ccc(F)cc2)sc2nc3c(c(-c4ccccc4)c12)CCC3 [Compound 17c, 3-Amino-N-(4-fluorophenyl)-4-phenyl-6,7-dihydro-5H-cyclopenta[b]thieno[3,2-e]pyridine-2-carboxamide]",–,23.6 ± 16.5,9.9 ± 17.1,92.7 ± 11.7,71.6,"SI (Selectivity index for 3D7 erythrocytic forms versus HEK293 cells) [2]: >100; IC50 (3D7) [nM] ([2]; strain 3D7, erythrocytic forms): two-digit nanomolar range; HEK293T Viability at 30 µM [%] ([5]; human, 48 h): 72.4 ± 23.4%; remaining activity at 10 µM [4, 10]: 103 ± 6.2%"
"Cc1cccc(-c2c3c(nc4sc(C(=O)Nc5ccc(Cl)cc5)c(N)c24)CCCC3)c1 [Compound 17e, 3-Amino-N-(4-chlorophenyl)-4-(3-methylphenyl)-5,6,7,8-tetrahydrothieno[2,3-b]quinoline-2-carbox-amide]",–,–,–,–,–,"Parasitemia (3D7) at 0.3 µM [%] ([2]; 0.3 µM, strain 3D7, calculated on DMSO controls): 5.0 ± 11.6%; Parasitemia (3D7) at 3 µM [%] ([2]; 3 µM, strain 3D7, calculated on DMSO controls): 4.7 ± 13.5%; HEK293T Viability at 30 µM [%] [5]: 57.9 ± 20.6%; rPfGSK-3 Activity at 10 µM [%] ([4]; 10 µM, remaining activity, calculated on DMSO controls, Table 3): 103.1 ± 10.7%"
"Nc1c(C(=O)Nc2ccc(Cl)cc2)sc2nc3c(c(-c4ccccc4)c12)CCC3 [Compound 17b, 3-Amino-N-(4-chlorophenyl)-4-phenyl-6,7-dihydro-5H-cyclopenta[b]thieno[3,2-e]pyridine-2-carboxamide]",–,7.2 ± 11.3,7.7 ± 14.7,92.7 ± 11.7,192,"SI (Selectivity index for 3D7 erythrocytic forms versus HEK293 cells) [2]: >100; HEK293T Viability at 30 µM [%] ([5]; human, 48 h): 89.0 ± 15.8%; remaining activity at 10 µM [4, 10]: 104 ± 15.5%"
"CNC(=O)c1sc2nc(N)c(C#N)c(-c3cccc(C)c3)c2c1N [Compound 9j, 3,6-Diamino-5-cyano-N-methyl-4-(3-methylphenyl)thieno[2,3-b]pyridine-2-carboxamide]",87.6 ± 7.4,74.6 ± 28.6,108 ± 24.2,67.2 ± 21.5,–,–
N#Cc1c(N)nc2sc(C(=O)Nc3ccc(Cl)cc3)c(N)c2c1-c1ccccc1Cl [Compound 3],–,–,–,–,199,"inhibition of human GSK-3 (in words) [1]: neither an inhibitor; IC50 ([2]; strain 3D7, erythrocytic forms): 199 nM; inhibition of plasmodial GSK-3 (in words) [4]: neither an inhibitor"
